Test results reported in patent US9018257B2, “5-aminolevulinic acid derivatives, methods for their preparation and uses thereof” (Bar Ilan University, priority 2011, dated 2015).
Values belong to the compound of their own block, whether it stands above or below them.

Legend:
α-globin [1] = test: α-globin mRNA, quantitative real-time PCR, K562 cells; assay type: cell-based, human; conditions: 0.5 mM, 72 hours (peak)
Protocol: Globin RNAs are quantified by quantitative real time polymerase chain reaction, (qRT-PCR) using SYBR I Green (Applied Biosystems). The cDNA is generated from cell culture or tissues using a PCR purification kit (Qiagen, Valencia, Calif., USA). The qRT-PCR is performed in triplicate and is repeated in at least three separate experiments.
(§1) Total RNA (1 μg) was primed by oligo dT and reverse-transcribed by Verso cDNA kit according to the manufacturer's protocol (Thermo Scientific, West Palm Beach, USA). Quantitative PCR was done on a Step One Plus thermocycler (Applied Byosystems, Van Allen Way, CA, USA). The comparative threshold method was used to calculate the relative gene expression. Values were normalized against glyceraldehyde 3-phosphate dehydrogenase (GAPDH) for the different genes. Real time PCR was performed with Syber Green (Kapa Biosystems, Woburn, Mass., USA) using the following primers: […]
(§2) K562 cells are grown as described above and incubated with 0.5 mM of various compounds for 96 hours. Total heme content in the cells is evaluated. In addition, a globin mRNA and protein expression levels are evaluated using Quantitative real-time PCR and Western blot analysis, respectively.

K562 cells [2] = test: MTT viability / proliferation of K562 cells; assay type: cell-based, human; conditions: 96 hours
Protocol: Cells are grown in 24 wells plate in a volume of 0.5 mL and treated as indicated for 96 hours. Then, 77 μL of 5 mg/mL MTT (3-[4,5-dimethylthiazol-2-yl]-2,5-diphenyltetrazolium bromide, (Sigma, Israel)) is added to each well for 2 hours. Afterwards, 400 μL of DMF solution (100 gr SDS dissolved in 250 mL dd H2O with 250 mL of DMF) is added for 4 hours. Absorbance is then measured in 570 nm using a Tecan spectrophotometer (NeoTec, Canada).
To evaluate the effect of various tested compounds on cell proliferation, K562 cells were treated for 96 hours and their viability was evaluated by MTT as detailed above.

PBGD mRNA = test: PBGD mRNA, quantitative real-time PCR, K562 cells; assay type: cell-based, human; conditions: 0.5 mM, after 48-96 hours
Protocol: as §1
Relative quantification of gene expression was determined by the comparative threshold method (ÄCT), as described previously (Livak K J, Schmittgen T D). Analysis of relative gene expression data using real-time quantitative PCR and the 2(−Delta Delta C(T)) Method. Expression of the Gapdh mRNA in each individual sample was used to normalize the dataset.
(§3) K562 cells are grown as described above and incubated with 0.5 mM of various compounds for 96 hours. Activity of PBGD is evaluated as described above. Expression level of the PBGD protein is evaluated using Western blot analysis (as detailed above). Expression level of PBGD mRNA are evaluated using Quantitative real-time PCR.

K562 cells [3] = test: TEM ultrastructure of K562 cells (cellular maturation); assay type: cell-based, human; conditions: 96 hours
Protocol: Analysis is performed on bone-marrow, spleen and liver, processed as described in [17]. Briefly, cells are treated for 96 hours (hrs), harvested and fixed with Karnovsky fixative. The samples are washed in 0.1 M cacodylate buffer and fixed with 1% OsO4 in 0.1 M sodium cacodylate buffer for 1 hour (h). The samples are then dehydrated in graded ethanol solutions and propylene oxide and embedded in agar mix. Thin sections are cut, stained with uranyl acetate and lead citrate, and observed under a transmission electron microscope.
To evaluate morphologic changes associated with the effect of compound of formula (I-a) (in this example, AlaAcBu) and the ALA+HDACI (in this example, BA) mixture on K562 cells, the cells were examined by immunohystochemical experiments, as shown in FIG. 7.

Ferrochelatase = Ferrochelatase protein expression in K562 cells; assay type: cell-based, human; conditions: vs ALA, BA or their mixture
Protocol: K562 cells are fixed and stained with primary antibodies anti-αHb or anti-Glycophorin A and are tagged using the compatible secondary antibodies-Alexa 488-conjugated anti-rabbit antibody donkey anti-goat (Invitrogen, Oregon, USA) as recommended by Cell Signaling (MA, USA). Fluorescence is measured in 10,000 cells using FACS with an excitation wavelength of 488 nm and emission wavelength of 530 nm. K562 cells were suspended in paraformaldehyde 4% for 10 min at 37° C., followed by incubation with chilled methanol (final concentration 90%) for 30 min on ice. Cells were washed twice with PBS−/− and blocked with BSA 0.5% in PBS−/− for 10 min at room temperature. Afterwards, the cells were incubated in 50 μL of the primary antibody goat polyclonal Ferrochelatase (Santa Cruz Biotechnology, Santa Cruz, Calif., USA) or goat polyclonal glycophorin A (Santa Cruz Biotechnology, Santa Cruz, Calif., USA) (1:50 in BSA 0.5%) or anti-a Hb for 30 min at room temperature, washed once with PBS−/−, and incubated with a fluorescent donkey anti-goat IgG secondary antibody (1:1000) (Invitrogen, Carlsbad, Calif., USA) for 30 min at room temperature. The cells were washed again with PBS−/− and fluorescence was measured in 10,000 cells per sample using a FACS (Becton-Dickinson, San Jose, Calif., USA) with an excitation wavelength of 488 nm and emission wavelength 530 nm. […]

PBGD = PBGD protein expression, Western blot, K562 cells; assay type: cell-based, human; conditions: 0.5 mM, 96 hours, compared to untreated cells or cells treated with ALA
Protocol: (§4) Proteins are quantified and equalized using the Bradford assay (Bio-Rad, CA, USA) and resolved on a 12% polyacrylamide gel. Afterwards, proteins are transferred from the gel onto nitrocellulose membranes (Bio-Rad, CA, USA) using a semi-dry transfer apparatus (Bio-Rad, CA, USA). After blocking the membranes with phosphate-buffered saline+0.2% Tween-20 (PBST) (Sigma-Aldrich, Israel) and 5% skim-milk (BD-Diagnostic Systems, MD, USA), membranes are incubated with primary rabbit anti-human PBGD antibody (a generous gift from flemeBiotech, Sweden), or with rabbit anti-α-Hb (H80) (Santa Cruz Biotechnology, CA, USA), or with HRP-conjugated mouse anti-β-actin antibody (C4) (Santa Cruz Biotechnology, CA, USA) diluted in blocking solution for 1 h in room temperature or for overnight in 4° c., washed with PBST and incubated with secondary antibodies diluted in blocking solution. Immuno-reactive proteins were visualized with enhanced chemiluminiscence detection EZ-ECL kit (Biological Industries, Israel) used as recommended by the manufacturer.
as §3

K562 cells [4] = test: Intracellular total heme assay in K562 cells; assay type: cell-based, human; conditions: 0.5 mM, 96 hours, vs ALA alone, BA alone or mixture
Protocol: The method for quantitative determination of total heme in cell lysates is performed using hemin as a standard. The “total heme” or “endogenous heme” measured in these assays includes bound and free heme. Following treatments, 100 or 500 μg of cell lysate was added to 100 μL orthotolidine reagent (0.25 gr orthotolidine (Sigma-Aldrich, Israel) dissolved in 80 mL glacial acetic acid (Sigma-Aldrich, Israel) and 10 mL dd H2O). Heme is oxidized to a green product by adding 100 μL of 1.2% H2O2 to the mixture for 10 minutes incubation in the dark. The first oxidation product was further oxidized to a yellow product by adding 0.5 mL of a 1:9 v/v solution of diluted acetic acid. Absorbance of the second product was read at 430 nm using a spectrophotometer (Tecan Trading AG, Switzerland).
as §2

α-globin [5] = test: α-globin protein expression, Western blot, K562 cells; assay type: cell-based, human; conditions: 0.5 mM, 96 hours, compared to any other treatment
Protocol: as §4, §2

[6] = system: porphobilinogen deaminase (PBGD); test: PBGD enzymatic activity assay in K562 cells; assay type: cell-based, human; conditions: 0.5 mM, 96 hours, vs ALA alone, BA alone or mixture
Protocol: K562 cells (1×10^6) are treated for 96 hours. PBGD activity is assayed as previously described by determining the fluorescence of uroporphyrin formed by the light-induced oxidation of uroporphyrinogen, which is the immediate product of the enzymatic deamination of 4 porphobilinogen molecules. In short, cells are harvested following treatment, and washed twice with PBS. After centrifugation, the pellet was resuspended in 200 μL 50 mM Tris buffer (pH 8.2) with 0.2% Triton. The cells are homogenized on ice and protein levels are quantified using the Bradford method. 400 μg protein was taken out in duplicates for incubation in 300 μL of 50 mM Tris buffer (pH 8.2) containing 0.2% Triton, with final concentration of 85 μM PBG (Sigma, Israel) for 1 hour at 37° C. The reaction is stopped by addition of 1.2 mL 15.6% TCA. […] The samples fluorescence is read using a Synergy spectrofluorometer (BioTek Instruments, VT, USA) with an excitation wavelength of 404 nm, and an emission wavelength of 595 nm. PBGD specific activity is calculated as activity percentage of control.
as §3

K562 cells [7] = test: PpIX synthesis in K562 cells (FACS fluorescence); assay type: cell-based, human; conditions: 0.5 mM, 96 hours, vs 5-ALA alone, BA alone or their mixture
Protocol: Following treatment, cells are harvested, collected by centrifugation, washed twice and resuspended in 0.5 mL with sterile PBS. PpIX fluorescence is measured in 10,000 cells per sample using a FACS (Becton-Dickinson, CA, USA) with an excitation wavelength of 488 nm and emission wavelength>670 nm. Images of the stained cells are examined using a fluorescent microscope (IX70) (Olympus Tokyo, Japan) using an excitation filter of 330-385 nm and barrier filter at 420 nm […] PpIX fluorescence is measured at the FL-3 channel of FACS Calibur. Additionally, pictures of cells are taken using a fluorescent microscope-Nikon TE200-E, to show PpIX fluorescence.

Balb-c mice = test: Doxorubicin induced anemia in mice, blood hemoglobin; assay type: in vivo; conditions: male Balb-c mice, Dox 4 mg/kg ip once a week + 50 mg/kg ip compound, day 19; vs Dox alone
Protocol: In an additional setting 8 weeks old male Balb-c mice were divided to two groups, Group 1 received 4 mg/kg ip dose of Doxorubicin (Dox) once a week and Group 2 received the same Doxorubicin treatment and in addition the mice were treated with 50 mg/kg ip dose of the tested compound three times a week. Termination was done on day 19, blood samples were drawn by retro-orbital venipuncture under anesthesia. Hemoglobin levels in heparinized whole blood were determined using Drabkints reagent and standard hemoglobin obtained from Sigma-Aldrich and prepared and stored as instructed by the manufacturer.
In vivo 8 weeks old male Balb-c mice were divided to two groups, Group 1 received 4 mg/kg ip dose of doxorubicin (Dox) once a week and Group 2 received the same Dox treatment and in addition the mice were treated with 50 mg/kg ip dose of compound of formula (I-a) (in this example, 1-(butyryloxy)ethyl-5-amino-4-oxopentanoate, (AlaAcBu)) three times a week. The experiment was terminated on day 19, blood samples were drawn by retro-orbital venipuncture under anesthesia. Hemoglobin levels in heparinized whole blood were determined using Drabkin's reagent and standard hemoglobin obtained from Sigma-Aldrich and prepared and stored as instructed by the manufacturer.

Glycophorin A = Glycophorin A expression by flow cytometry (erythroblast differentiation); assay type: cell-based, human; conditions: K562 cells, 0.5 mM, 96 hours; compared to any other treatment
Protocol: K562 cells are fixed and stained with primary antibodies anti-αHb or anti-Glycophorin A and are tagged using the compatible secondary antibodies-Alexa 488-conjugated anti-rabbit antibody donkey anti-goat (Invitrogen, Oregon, USA) as recommended by Cell Signaling (MA, USA). Fluorescence is measured in 10,000 cells using FACS with an excitation wavelength of 488 nm and emission wavelength of 530 nm. K562 cells were suspended in paraformaldehyde 4% for 10 min at 37° C., followed by incubation with chilled methanol (final concentration 90%) for 30 min on ice. Cells were washed twice with PBS−/− and blocked with BSA 0.5% in PBS−/− for 10 min at room temperature. […] The cells were washed again with PBS−/− and fluorescence was measured in 10,000 cells per sample using a FACS (Becton-Dickinson, San Jose, Calif., USA) with an excitation wavelength of 488 nm and emission wavelength 530 nm.
K562 cells are grown as described above and incubated with 0.5 mM of various compounds for 96 hours. […] Glycophorin A content is measured using immunostaining analyzed by flow cytometry, as detailed above. […]

HDAC class I and II = test: Cellular HDAC activity (Fluor de Lys) in U-251 cells; assay type: cell-based, human; conditions: 2 hours with substrate, read-out: IC50 of HDAC inhibition
Protocol: Inhibition of the activity HDAC class I and II in the cells is performed with the fluorescent kit (AK-503, Biomol, USA). The cells are seeded (10×10^3 cells/well) in 96-well plates (in quadruplicates) in growth medium for 24 hours and then treated. Incubation with the HDAC substrate (Fluor de Lys™) is for 2 hours. The reaction is terminated by the addition of Fluor de Lys™ developer and 2 μM trichostatin A (TSA). The % of inhibition is calculated from the ratio of the fluorescence (measured at 355 nm excitation and 460 nm emission) in the treated compared to the untreated control culture.
In order to test the direct effect of octanoic acid, as well as co-drugs of formula (I-a) (which comprise octanoic acid as the carboxylic acid), on the activity of cellular HDAC, the activity of HDAC is evaluated by incubating U-251 cells for 2 hours with the cell-permeable HDAC fluorometric substrate for HDAC class I and II (Fluor de Lys™), as detailed above.

Structure (SMILES): NCC(=O)CCC(=O)O [ALA, 5-aminolevulinic acid]
- α-globin mRNA expression, fold elevation (α-globin [1]): 2.2 fold
- cell viability (MTT, mitochondria activity % of control) (K562 cells [2]): did not affect cell viability
- PBGD mRNA level (PBGD mRNA): significantly decreased

Structure (SMILES): CCCC(=O)OC(C)OC(=O)CCC(=O)CN (stereo not drawn) [AlaAcBu, 1-(butyryloxy)ethyl 5-amino-4-oxopentanoate]
- α-globin mRNA expression, fold elevation (α-globin [1]): 11.3 fold
- ultrastructural changes identified by TEM (K562 cells [3]): chromatin condensation, cytosolic hemoglobinization
- Ferrochelatase protein expression (Ferrochelatase): significantly higher level
- inhibition of cell proliferation (MTT) (K562 cells [2]): 33%
- expression levels of PGBD (protein, Western blot) (PBGD): increased similarly
- fold increase in total heme content (K562 cells [4]): higher
- protein expression levels of α-globin (α-globin [5]): markedly elevated
- relative activity of PGBD compared to control [6]: higher
- intensity of the fluorescence generated by PpIX (K562 cells [7]): substantially higher
- hemoglobin level in blood (Balb-c mice): ameliorate the Dox-induced suppression of erythropoiesis
- relative expression of Glycophorin A (percentage of control) (Glycophorin A): highest increase

Structure (SMILES): CCCC(=O)O [BA, butyric acid]
- α-globin mRNA expression, fold elevation (α-globin [1]): 9.1 fold
- cell viability (MTT, mitochondria activity % of control) (K562 cells [2]): even increased it
- expression levels of PGBD (protein, Western blot) (PBGD): increased similarly

- IC50 (HDAC class I and II): 500 µM
Structure (SMILES): CCCCCCCC(=O)O [octanoic acid]
